Assay results published in patent publication US11077090B2, “Compounds and compositions and uses thereof” (Sunovion Pharmaceuticals Inc., priority 2016, dated 2021).
Where two headings read alike, the source gives them in different places.

Test system: compound-treated mice
Assay: Neuropharmacological assay (SmartCube): behavioral activity signature and minimal effective dose
Type: in vivo
Conditions: for minimal effective dose: Mus musculus, ip, MED = dose having 50% or more total activity; for AD: ADHD (probability of activity signature) / AG: analgesic (probability of activity signature) / AX: anxiolytic (probability of activity signature) / CE: cognitive enhancer (probability of activity signature) / DP: anti-depressant (probability of activity signature) / MS: mood stabilizer (probability of activity signature) / PS: anti-psychotic (probability of activity signature) / SD: sedative hypnotic (probability of activity signature) / UN: uncharacterized CNS activity (probability of activity signature): i.p. 15 min before test, most efficacious dose(s)
In short: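 Video-recorded behavior is compared algorithmically against a reference-compound database, yielding class probabilities (best dose reported). Compounds given i.p. in NMP/PEG/propylene glycol 15 min pre-test at 3 doses; potency as MED, the dose (mpk, range usually 0.3–30) reaching ≥50% total activity.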

[1] = read-out: Potency: minimal effective dose (MED)
[2] = read-out: Potency: minimal effective dose (MED), binned

Row | SMILES | minimal effective dose [1] [mg/kg] | AD: ADHD (probability of activity signature) | AG: analgesic (probability of activity signature) | AX: anxiolytic (probability of activity signature) | CE: cognitive enhancer (probability of activity signature) | DP: anti-depressant (probability of activity signature) | MS: mood stabilizer (probability of activity signature) | PS: anti-psychotic (probability of activity signature) | SD: sedative hypnotic (probability of activity signature) | UN: uncharacterized CNS activity (probability of activity signature) | minimal effective dose [2] [mg/kg]
1 | Cc1ccc2c(c1C)C(N)CCOC2.Cl (stereo not drawn) [Example 43, 6,7-Dimethyl-1,3,4,5-tetrahydrobenzo [c]oxepin-5-amine hydrochloride] | 10 to 30 | + (LOQ ≤ + <5%) | ++ (5% ≤ ++ <25%) | +++ (25% ≤ +++ <50%) | ++ (5% ≤ ++ <25%) | + (LOQ ≤ + <5%) | + (LOQ ≤ + <5%) | ++ (5% ≤ ++ <25%) | ++ (5% ≤ ++ <25%) | + (LOQ ≤ + <5%) | 
2 | COc1ccc2c(c1)[C@H](N)[C@H](C)OC2.Cl [Example 84] | 3 to 10 | + (LOQ ≤ + <5%) | ++ (5% ≤ ++ <25%) | ++++ (50% ≤ ++++) | ++ (5% ≤ ++ <25%) | ++ (5% ≤ ++ <25%) | + (LOQ ≤ + <5%) | ++ (5% ≤ ++ <25%) | + (LOQ ≤ + <5%) | +++ (25% ≤ +++ <50%) | 
3 | CC(C)(C)c1ccc2c(c1)C(N)COC2.Cl (stereo not drawn) [Example 11] | 10 to 30 | + (LOQ ≤ + <5%) | + (LOQ ≤ + <5%) | + (LOQ ≤ + <5%) | ++ (5% ≤ ++ <25%) | ++ (5% ≤ ++ <25%) | + (LOQ ≤ + <5%) | + (LOQ ≤ + <5%) | ++ (5% ≤ ++ <25%) | + (LOQ ≤ + <5%) | 
4 | Cc1ccc2c(c1C)[C@@H](N)COC2 [Example 136] | 3 to 10 | + (LOQ ≤ + <5%) | ++ (5% ≤ ++ <25%) | ++ (5% ≤ ++ <25%) | ++ (5% ≤ ++ <25%) | ++ (5% ≤ ++ <25%) | + (LOQ ≤ + <5%) | ++ (5% ≤ ++ <25%) | + (LOQ ≤ + <5%) | +++ (25% ≤ +++ <50%) | 
5 | CCC[C@H]1OCc2ccccc2[C@@H]1N (single isomer, unassigned) [Example 251] |  | ++ (5% ≤ ++ <25%) | + (LOQ ≤ + <5%) | ++ (5% ≤ ++ <25%) | + (LOQ ≤ + <5%) | + (LOQ ≤ + <5%) | ++ (5% ≤ ++ <25%) | ++ (5% ≤ ++ <25%) | ++ (5% ≤ ++ <25%) | ++ (5% ≤ ++ <25%) | 3 to 10
6 | COc1ccc2c(c1)[C@H](N)[C@H](C)OC2 (single isomer, unassigned) [Example 173] |  | + (LOQ ≤ + <5%) | ++ (5% ≤ ++ <25%) | ++ (5% ≤ ++ <25%) | ++ (5% ≤ ++ <25%) | + (LOQ ≤ + <5%) | + (LOQ ≤ + <5%) | + (LOQ ≤ + <5%) | + (LOQ ≤ + <5%) | ++++ (50% ≤ ++++) | 3 to 10
7 | N[C@@H]1COCc2cccc(Cl)c21 [Example 127] | < 3 | + (LOQ ≤ + <5%) | ++ (5% ≤ ++ <25%) | ++ (5% ≤ ++ <25%) | ++ (5% ≤ ++ <25%) | ++ (5% ≤ ++ <25%) | + (LOQ ≤ + <5%) | ++ (5% ≤ ++ <25%) | + (LOQ ≤ + <5%) | +++ (25% ≤ +++ <50%) | 
8 | Cc1ccc2c(c1C)[C@H](N)[C@H](C)OC2.Cl [Example 78] | 3 to 10 | + (LOQ ≤ + <5%) | ++ (5% ≤ ++ <25%) | ++ (5% ≤ ++ <25%) | ++ (5% ≤ ++ <25%) | ++ (5% ≤ ++ <25%) | + (LOQ ≤ + <5%) | +++ (25% ≤ +++ <50%) | + (LOQ ≤ + <5%) | ++++ (50% ≤ ++++) | 
9 | Cl.NC1COCc2ccc3ncccc3c21 (stereo not drawn) [Example 15] | > 30 | + (LOQ ≤ + <5%) | + (LOQ ≤ + <5%) | + (LOQ ≤ + <5%) | + (LOQ ≤ + <5%) | + (LOQ ≤ + <5%) | + (LOQ ≤ + <5%) | + (LOQ ≤ + <5%) | + (LOQ ≤ + <5%) | + (LOQ ≤ + <5%) | 
10 | N[C@@H]1COCc2ccc(Cl)c(Cl)c21 (single isomer, unassigned) [Example 119] | < 3 | + (LOQ ≤ + <5%) | ++ (5% ≤ ++ <25%) | +++ (25% ≤ +++ <50%) | ++ (5% ≤ ++ <25%) | ++ (5% ≤ ++ <25%) | + (LOQ ≤ + <5%) | ++ (5% ≤ ++ <25%) | ++ (5% ≤ ++ <25%) | ++++ (50% ≤ ++++) | 
11 | Cc1cccc2c1COCC2N.Cl (stereo not drawn) [Example 27] | 3 to 10 | + (LOQ ≤ + <5%) | ++ (5% ≤ ++ <25%) | ++ (5% ≤ ++ <25%) | ++ (5% ≤ ++ <25%) | ++ (5% ≤ ++ <25%) | ++ (5% ≤ ++ <25%) | ++ (5% ≤ ++ <25%) | + (LOQ ≤ + <5%) | +++ (25% ≤ +++ <50%) | 
12 | Cc1cccc2c1[C@H](N)CO[C@@H]2C [Example 226] |  | + (LOQ ≤ + <5%) | + (LOQ ≤ + <5%) | ++ (5% ≤ ++ <25%) | ++ (5% ≤ ++ <25%) | ++ (5% ≤ ++ <25%) | + (LOQ ≤ + <5%) | +++ (25% ≤ +++ <50%) | + (LOQ ≤ + <5%) | ++ (5% ≤ ++ <25%) | 10 to 30
13 | Cc1cc(C)c2c(c1)[C@H](N)COC2 (single isomer, unassigned) [Example 125] | < 3 | + (LOQ ≤ + <5%) | + (LOQ ≤ + <5%) | ++ (5% ≤ ++ <25%) | ++ (5% ≤ ++ <25%) | ++ (5% ≤ ++ <25%) | + (LOQ ≤ + <5%) | ++ (5% ≤ ++ <25%) | ++ (5% ≤ ++ <25%) | ++++ (50% ≤ ++++) | 
14 | CN[C@H]1COCc2ccc(OC)cc21 [Example 140] | 10 to 30 | + (LOQ ≤ + <5%) | ++ (5% ≤ ++ <25%) | ++ (5% ≤ ++ <25%) | ++ (5% ≤ ++ <25%) | ++ (5% ≤ ++ <25%) | ++ (5% ≤ ++ <25%) | +++ (25% ≤ +++ <50%) | + (LOQ ≤ + <5%) | + (LOQ ≤ + <5%) | 
15 | Cc1cc(C)c2c(c1)[C@@H](N)COC2 (single isomer, unassigned) [Example 126] | < 3 | + (LOQ ≤ + <5%) | ++ (5% ≤ ++ <25%) | ++ (5% ≤ ++ <25%) | ++ (5% ≤ ++ <25%) | ++ (5% ≤ ++ <25%) | + (LOQ ≤ + <5%) | +++ (25% ≤ +++ <50%) | + (LOQ ≤ + <5%) | ++++ (50% ≤ ++++) | 
